Assay results reported in patent US11633484B2, “Method for improving the oral bioavailability of a drug” (PharmaCytics B.V., priority 2017, dated 2023).

Columns and labels:
xenograft mouse model = conditions: oral administration; cited from earlier work
[1] = oral administration, rat; cited from earlier work
[2] = Determination of oral bioavailability of Abiraterone conjugates (plasma AUClast after oral gavage); format: in vivo; parameters: key to AUClast (total amount abiraterone and conjugate): AUClast value for Zytiga; +: 1.1-6-fold increase compared to Zytiga; ++: >7-fold increase compared to Zytiga; conditions: female Beagle dogs; for AUClast (total amount abiraterone and conjugate): single dose 15 μmole/kg by oral gavage, 24 h, fold increase compared to Zytiga; for Conversion rate to Abiraterone: AUClast Abiraterone/AUClast conjugate + AUClast Abiraterone × 100%, oral 15 μmole/kg
Experimental: (§1) Relative and absolute bioavailability may be determined in different animal models and according to different protocols. The following protocol is typical for determining bioavailability in female Beagle dogs. The animals were deprived from food over a time period of 8 h prior to administration and 2 h after administration of the test molecules. Water was supplied without limitation.
(§2) On the study day, the animals received test molecules, at a single dose of 15 μmole/kg, by oral gavage, formulated in mixtures of propylene glycol, ethanol and 0.9% NaCl+5% mannitol in water. Blood samples were collected from the jugular vein on the following time points: 0.25, 0.5, 1, 2, 4, 8 and 24 hours after dosing.
(§3) Pharmacokinetic parameters were calculated from concentration versus time data using non-compartmental pharmacokinetic methods using Phoenix pharmacokinetic software. Data are compared to Zytiga to establish improvement of its oral bioavailability by the Abiraterone conjugates.

β-glucosidase = experiment: Enzymatic removal of the glucose moiety (treatment with β-glucosidase), conversion to parent drug
[3] = Determination of oral bioavailability of Kalydeco conjugates; format: in vivo, Beagle dogs; parameters: key to AUClast (total amount Kalydeco and conjugate): AUClast value for Kalydeco; +: 1.1-6-fold increase compared to Kalydeco; conditions: for AUClast (total amount Kalydeco and conjugate): as Example 11 (Beagle dogs, oral gavage), fold increase compared to Kalydeco
Experimental: as §1, §2, §3
In a similar fashion as described in Example 11, the bioavailability increase of Kalydeco conjugate 17 was determined.

[4] = Determination of oral bioavailability of Rotigotine conjugate; format: in vivo, Beagle dogs; parameters: key to AUClast (total amount Rotigotine and conjugate): AUClast value for Rotigotine; ++: >6-fold increase compared to Rotigotine; conditions: for AUClast (total amount Rotigotine and conjugate): as Example 11 (Beagle dogs, oral gavage), fold increase compared to Rotigotine
Experimental: as §1, §2, §3
In a similar fashion as described in Example 11, the bioavailability increase of Rotigotine conjugate 28 was determined.

[5] = orally administered; cited from earlier work
[6] = oral application in rat; cited from earlier work

COc1cc(C)c2cc(O[C@@H]3O[C@H](CO)[C@@H](O)[C@H](O)[C@H]3O)c(C)cc2c1C(C)C
Reduction of tumor volume (xenograft mouse model): 50%

CO[C@@H]1O[C@H](COC(=O)NC(N)=NC(=O)Cc2c(Cl)cccc2Cl)[C@@H](O)[C@H](O)[C@H]1O
Relative Cmax compared to guanfacine [1]: lower value

CC(=O)O[C@H]1CC[C@@]2(C)C(=CC[C@@H]3[C@@H]2CC[C@]2(C)C(c4cccnc4)=CC[C@@H]32)C1 [3-O-Acetate (Zytiga), reference compound]
AUClast (total amount abiraterone and conjugate) [2]: o

C[C@]12CC[C@H](O[C@@H]3O[C@H](CO)[C@@H](O)[C@H](O)[C@H]3O)CC1=CCC1[C@@H]2CC[C@]2(C)C(c3cccnc3)=CC[C@@H]12 (stereo partly drawn) [3-O-β-Glucoside (33), 3-O-β-D-Glucopyranosyl-abiraterone, reference compound]
Conversion rate to Abiraterone [2]: + (1-20%)
AUClast (total amount abiraterone and conjugate) [2]: + (1.1-6-fold increase compared to Zytiga)

COc1cc(C)c2cc(O)c(C)cc2c1C(C)C [7-hydroxy-3-methoxy cadalene]
Reduction of tumor volume (xenograft mouse model): did not show tumor volume reduction

CN(CO[C@H]1CC[C@@]2(C)C(=CCC3[C@@H]2CC[C@]2(C)C(c4cccnc4)=CC[C@@H]32)C1)C(=O)O[C@@H]1O[C@H](CO)C(O)[C@H](O)C1O (stereo partly drawn) [Compound 7a]
Conversion rate to Abiraterone [2]: +++ (41-50%)

CCN(CO[C@H]1CC[C@@]2(C)C(=CCC3[C@@H]2CC[C@]2(C)C(c4cccnc4)=CC[C@@H]32)C1)C(=O)O[C@@H]1O[C@H](CO)C(O)[C@H](O)C1O (stereo partly drawn) [Compound 7b]
Conversion rate to Abiraterone [2]: ++++ (>51%)
AUClast (total amount abiraterone and conjugate) [2]: + (1.1-6-fold increase compared to Zytiga)

CCCN(CO[C@H]1CC[C@@]2(C)C(=CCC3[C@@H]2CC[C@]2(C)C(c4cccnc4)=CC[C@@H]32)C1)C(=O)O[C@@H]1O[C@H](CO)C(O)[C@H](O)C1O (stereo partly drawn) [Compound 7c]
Conversion rate to Abiraterone [2]: +++ (41-50%)
AUClast (total amount abiraterone and conjugate) [2]: ++ (>7-fold increase compared to Zytiga)
Conversion to Abiraterone and Kalydeco, respectively, upon treatment with β-glucosidase (β-glucosidase): readily converted

C[C@]12CC[C@H](OCN(C(=O)O[C@@H]3O[C@H](CO)C(O)[C@H](O)C3O)C3CCC3)CC1=CCC1[C@@H]2CC[C@]2(C)C(c3cccnc3)=CC[C@@H]12 (stereo partly drawn) [Compound 7g]
Conversion rate to Abiraterone [2]: ++ (21-40%)
AUClast (total amount abiraterone and conjugate) [2]: ++ (>7-fold increase compared to Zytiga)

C=CCN(CO[C@H]1CC[C@@]2(C)C(=CCC3[C@@H]2CC[C@]2(C)C(c4cccnc4)=CC[C@@H]32)C1)C(=O)O[C@@H]1O[C@H](CO)C(O)[C@H](O)C1O (stereo partly drawn) [Compound 7l]
Conversion rate to Abiraterone [2]: +++ (41-50%)
AUClast (total amount abiraterone and conjugate) [2]: ++ (>7-fold increase compared to Zytiga)

CN(CO[C@H]1CC[C@@]2(C)C(=CCC3[C@@H]2CC[C@]2(C)C(c4cccnc4)=CC[C@@H]32)C1)C(=O)O[C@@H]1O[C@H](CO)C(O)[C@H](O)C1O (stereo partly drawn) [Compound 13]
Conversion rate to Abiraterone [2]: ++ (21-40%)
AUClast (total amount abiraterone and conjugate) [2]: ++ (>7-fold increase compared to Zytiga)

CCCN(COc1cc(NC(=O)c2c[nH]c3ccccc3c2=O)c(C(C)(C)C)cc1C(C)(C)C)C(=O)O[C@@H]1O[C@H](CO)[C@@H](O)[C@H](O)[C@H]1O [Compound 17]
Conversion rate to Kalydeco ([3]; AUClast Kalydeco/AUClast conjugate + AUClast Kalydeco × 100%, as Example 11): ++++ (>51%)
AUClast (total amount Kalydeco and conjugate) [3]: + (1.1-6-fold increase compared to Kalydeco)
Conversion to Abiraterone and Kalydeco, respectively, upon treatment with β-glucosidase (β-glucosidase): readily converted

CCCN(COc1cccc2c1CC[C@H](N(CCC)CCc1cccs1)C2)C(=O)O[C@@H]1O[C@H](CO)[C@@H](O)[C@H](O)[C@H]1O [Compound 28]
Conversion rate to Rotigotine ([4]; AUClast Rotigotine/(AUClast conjugate + AUClast Rotigotine) × 100%, as Example 11): ++++ (>51%)
AUClast (total amount Rotigotine and conjugate) [4]: ++ (>6-fold increase compared to Rotigotine)

CC(C)(C)c1cc(C(C)(C)C)c(NC(=O)c2c[nH]c3ccccc3c2=O)cc1O [Kalydeco, reference compound]
AUClast (total amount Kalydeco and conjugate) [3]: o

CCCN(CCc1cccs1)[C@H]1CCc2c(O)cccc2C1 [Rotigotine, reference compound]
AUClast (total amount Rotigotine and conjugate) [4]: o

C[C@@H]1C[C@H]2[C@@H]3CCC4=CC(=O)C=C[C@]4(C)[C@@]3(F)[C@@H](O)C[C@]2(C)[C@@]1(O)C(=O)COC1O[C@H](CO)[C@@H](O)[C@H](O)[C@H]1O (stereo partly drawn) [dexamethasone glucoside]
Fraction of oral dose that reached the caecum as a free steroid [5]: ~60%

C[C@]12C=CC(=O)C=C1CC[C@@H]1[C@@H]2[C@@H](O)C[C@@]2(C)[C@H]1CC[C@]2(O)C(=O)CO[C@@H]1O[C@H](CO)[C@@H](O)[C@H](O)[C@H]1O [prednisolone-21-O-β-D-glucoside]
Increase of serum levels with respect to prednisolone [6]: two-fold increase
